Results as given in patent EP0488965A1, “Phthalidilidene derivatives of carnitine and alkanoylcarnitines and pharmaceutical compositions containing them” (Sigma-Tau Industrie Farmaceutiche Riunite S.p.A., priority 1990, dated 1992).

Experiments:
[1] = system: PAF-induced platelet aggregation; experiment: PAF-induced platelet aggregation in platelet rich plasma; format: cell-based, rabbits; settings: Oryctolagus cuniculus, 2 min, compound 10^-5M, 2 minutes of incubation, rabbit PRP
Protocol: Blood was collected from male rabbits (HY/Charles River, Italy) by heart puncture using a plastic syringe and transferred immediately into plastic tubes containing 3.8% (by weight) solution of sodium citrate (0.1 ml/ml blood).
PRP (Platelet Rich Plasma) was obtained by plasma centrifugation at 145 x g for 5 minutes at 22°C. Platelet number was determined with a CA 580A (Delcon) "platelet counter". The platelet number was adjusted to the fixed value of […] by adding PPP (Platelet Poor Plasma). PPP was obtained by centrifuging blood at 1600 x g for 10 minutes at 22°C.
(§1) Platelet aggregation was determined photometrically (G.V.R. Born, Nature 194, 927; 1962) with an ELVI 840 aggregometer in plastic tubes under continuous stirring at 1000 rpm.
(§2) Maximal light transmission (100% ) was recorded by reading PPP, while 0% transmission was recorded by reading PRP. The PRP aggregation degree induced by the aggregation factor (PAF) was calculated as percentage of maximal light transmittance obtained with PPP using 250 µL samples of PRP.
(§3) The compounds were dissolved in bidistilled water at the concentration of 10⁻⁵ M and tested after 2 minutes of incubation.
(§4) Aggregation inhibition was calculated as percentage of the value obtained in the presence of the aggregating agent only.

[2] = molecular target: T1, PAF (platelet activating factor) receptors (Oryctolagus cuniculus, UniProt G1TEI7); experiment: Binding to PAF receptors (3H-PAF displacement in rabbit platelets); settings: 50% inhibiting concentration of specific receptor binding, 3H-PAF 0.5 nM, 30 minutes at 25°C
T1 construct: Blood was drawn via indracardiac puncture from male rabbits; from tissue; host or cells: Platelets from the blood of male rabbits (HY/CR strain, Charles River, Italy)
T1 sequence (G1TEI7 1-342): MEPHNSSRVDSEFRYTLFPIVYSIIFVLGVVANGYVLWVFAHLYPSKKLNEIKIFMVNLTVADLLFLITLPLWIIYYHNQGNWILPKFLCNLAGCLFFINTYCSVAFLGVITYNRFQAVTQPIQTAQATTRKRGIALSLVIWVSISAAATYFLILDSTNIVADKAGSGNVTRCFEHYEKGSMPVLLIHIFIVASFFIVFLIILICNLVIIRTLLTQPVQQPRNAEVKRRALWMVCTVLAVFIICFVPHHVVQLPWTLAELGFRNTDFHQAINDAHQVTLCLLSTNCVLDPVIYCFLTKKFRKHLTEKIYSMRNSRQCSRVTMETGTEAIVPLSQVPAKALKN
Protocol: The binding of the compounds under examination to rabbit platelet receptors was studied following the procedure disclosed by D. Nunez et al, Eur J. Pharmacol. 123, 197 (1986).
Blood was drawn via indracardiac puncture from male rabbits (HY/CR strain-Charles River, Italy) weighing 2.5-3.0 Kg.
Blood was diluted (1:9) in a ACD (0.8% citric acid, 2.2% trisodium citrate, 2.45% glucose, weight percentages) solution and centrifuged at 100 x g for 15 minutes.
The precipitate was suspended in the incubation buffer at […] platelet/ml concentration, immediately before binding.
The platelet number and possible erythrocyte contamination was controlled with a platelet counter DELCON CA480.
Platelets were incubated in polyethylene tubes with ³H-PAF (0.5 nM) for 30 minutes at 25°C. The test compounds were added to a volume of 200 µl. The final volume was equal to 500 µl. Incubation was stopped by rapid filtration under vacuum through GF/C filters (WHATMAN) washed with (3x3 ml) cold incubation buffer using a Brondel Cell Harvester filtration system. The filters were counted in 8 mL OptiFluor (Packard) using a TRI-CARB 1900 CA-Packard liquid scintillation spectrometer (about 50% counting efficiency).
The percentage of inhibition of the specific binding receptor-radioligand was calculated for each concentration (mean of incubations in triplicate).
The competition curve, the slope of the curve, and the IC₅₀ value (concentration which inhibits 50% of the specific radioligand-receptor binding) were calculated with the "All fit" program (A. De Lean et al., Am. J. Physiol. 235, E97, 1978) runned in a 55-SX IBM computer.

mice = experiment: Observation of behaviour and death rate in mice (Irwin method); format: in vivo; settings: for SYMPTOMS: male mice, 4 animals/dose, n.e. = no effect; for DEATH RATE: mouse, in vivo
Protocol: The observation of normal behaviour in mice was conducted following the method by S. Irwin, Psychopharmacologia 13, 222 ( 1968). This method allows alterations of some behavioural, neurophysiological and neurovegetative parameters directly detectable by the experimenter to be visualized.
The test was conducted in male mice [Crl;(CD-I)(ICR)BR, Charles River - Italy] weighing 22-25 g, following oral administration of the compounds suspended in carboxymethylcellulosa (0.5% by weight in H₂O) to groups of 4 animals/dose.
The animals were kept under continuous observation for five hours following treatment and twice a day for the subsequent five days.
Death rate was also observed during the whole test period. The initial administered dose was 1,000 mg/kg per os; lower doses were administered following death of some animals or after marked effects at the initial dose were dected.

[3] = system: ADP-induced platelet aggregation; experiment: ADP-induced platelet aggregation in platelet rich plasma; format: cell-based, rats; settings: 2 min, compound 10^-5M, 2 minutes of incubation, rat PRP
Protocol: as §1, §2, §3, §4
Blood was drawn from the abdominal aorta of male rats (Crl:(WI)BR, Charles River, Italy) under barbiturate anaesthesia and quickly transferred into plastic tubes containing 0.1 mL/mL blood of 3.8% (by weight) solution of sodium citrate. PRP was obtained by plasma centrifugation at 115 x g for 5 minutes at 22°C and PPP by centrifugation at 1600 x g for 10 minutes. The final PRP platelet number was adjusted to the fixed value of […] of PRP by adding PPP.
Platelet count was made with a CA580 A(Delcan) platelet counter. The same procedure outlined in the paragraph "PAF aggregation" was followed for the ADP-induced aggregation.

Compound	inhibition at 10 µM [1] [%]	IC50 [2] [µM]	SYMPTOMS (mice; 600 mg/kg per os)	SYMPTOMS (mice; 1000 mg/kg per os)	DEATH RATE (mice; 600 mg/kg)	DEATH RATE (mice; 1000 mg/kg)	inhibition at 10 µM [3] [%]
CC(C)CC(=O)O[C@H](CC(=O)OC/C=C1\OC(=O)c2ccccc21)C[N+](C)(C)C [ST 776]	100	3.6	n.e.	convulsion, salivation	0/4	2/4	5
CC(=O)O[C@H](CC(=O)OC/C=C1\OC(=O)c2ccccc21)C[N+](C)(C)C [ST 739]	–	5.3	n.e.	jerks	0/4	2/4	–
CC(C)CC(=O)O[C@H](CC(=O)OC/C=C1\OC(=O)c2cc(Cl)ccc21)C[N+](C)(C)C [ST 803]	72	0.0066	–	diarrhea	–	0/4	8
CC(C)C(=O)O[C@H](CC(=O)OC/C=C1\OC(=O)c2ccccc21)C[N+](C)(C)C [ST 775]	–	2	–	n.e.	–	0/4	–
C[N+](C)(C)C[C@H](O)CC(=O)OC/C=C1\OC(=O)c2ccccc21 [ST 736, (Z)-(3-phtalidylidene)ethyl ester of L-carnitine bromide]	–	9.3	n.e.	convulsion, salivation	0/4	3/4	–
CC(C)C(=O)O[C@H](CC(=O)OC/C=C1\OC(=O)c2cc(Cl)ccc21)C[N+](C)(C)C [ST 806]	95	0.018	salivation	salivation	0/4	1/4	18
CC(=O)O[C@H](CC(=O)OC/C=C1\OC(=O)c2cc(Cl)ccc21)C[N+](C)(C)C [ST 804]	96	0.019	salivation	salivation	0/4	1/4	13
C[N+](C)(C)C[C@H](O)CC(=O)OC/C=C1\OC(=O)c2cc(Cl)ccc21 [ST 801]	97	0.02	–	salivation	–	0/4	7
CCC(=O)O[C@H](CC(=O)OC/C=C1\OC(=O)c2ccccc21)C[N+](C)(C)C [ST 768]	–	6.7	n.e.	convulsion, salivation diarrhea, lacrimation	0/4	1/4	–
CCC(=O)O[C@H](CC(=O)OC/C=C1\OC(=O)c2cc(Cl)ccc21)C[N+](C)(C)C [ST 805]	40	0.022	salivation	salivation	0/4	1/4	10
